Test results taken from patent publication US10292391B2, “Pesticidally active 1,2,4-triazole derivatives with sulphur containing substituents” (Syngenta Participations AG, priority 2015, dated 2019).

Experiments:
Type in all cases: in vivo
[1] = system: Spodoptera littoralis (Egyptian Cotton Leaf Worm); assay: Activity against Spodoptera littoralis, sprayed cotton leaf discs; details: foliar, 72 h, application rate of 200 ppm, L1 larvae, 3 days after infestation, read-out: control (at least one of mortality, anti-feedant effect, and growth inhibition)
Method: Cotton leaf discs were placed on agar in 24-well microtiter plates and sprayed with aqueous test solutions prepared from 10,000 ppm DMSO stock solutions. After drying the leaf discs were infested with five L1 larvae. The samples were assessed for mortality, anti-feedant effect, and growth inhibition in comparison to untreated samples 3 days after infestation. Control of Spodoptera littoralis by a test sample is when at least one of mortality, anti-feedant effect, and growth inhibition is higher than the untreated sample.

[2] = system: Diabrotica Balteata (Corn Root Worm); assay: Activity against Diabrotica balteata, sprayed maize sprouts; details: 96 h, application rate of 200 ppm, L2 larvae, 4 days after infestation, read-out: effect in at least one of the two categories (mortality or growth inhibition)
Method: Maize sprouts, placed on an agar layer in 24-well microtiter plates were treated with aqueous test solutions prepared from 10,000 ppm DMSO stock solutions by spraying. After drying, the plates were infested with L2 larvae (6 to 10 per well). The samples were assessed for mortality and growth inhibition in comparison to untreated samples 4 days after infestation.

[3] = system: Frankliniella occidentalis (Western Flower Thrips); assay: Activity against Frankliniella occidentalis, sprayed sunflower leaf discs; details: foliar, 168 h, application rate of 200 ppm, population of mixed ages, 7 days after infestation
Method: Sunflower leaf discs were placed on agar in 24-well microtiter plates and sprayed with aqueous test solutions prepared from 10,000 DMSO stock solutions. After drying the leaf discs were infested with a Frankliniella population of mixed ages. The samples were assessed for mortality 7 days after infestation.

[4] = system: Euschistus heros(Neotropical Brown Stink Bug); assay: Activity against Euschistus heros, sprayed soybean leaf; details: 120 h, application rate of 200 ppm, N-2 nymphs, 5 days after infestation, read-out: effect in at least one of the two categories (mortality or growth inhibition)
Method: Soybean leaf on agar in 24-well microtiter plates were sprayed with aqueous test solutions prepared from 10,000 ppm DMSO stock solutions. After drying the leaf were infested with N-2 nymphs. The samples were assessed for mortality and growth inhibition in comparison to untreated samples 5 days after infestation.

[5] = system: Myzus persicae (Green Peach Aphid); assay: Activity against Myzus persicae, sprayed sunflower leaf discs; details: foliar, 144 h, application rate of 200 ppm, aphid population of mixed ages, 6 days after infestation
Method: Sunflower leaf discs were placed on agar in a 24-well microtiter plate and sprayed with aqueous test solutions prepared from 10,000 ppm DMSO stock solutions. After drying, the leaf discs were infested with an aphid population of mixed ages. The samples were assessed for mortality 6 days after infestation.

[6] = system: Plutella xylostella (Diamond Back Moth); assay: Activity against Plutella xylostella, treated artificial diet; details: 120 h, application rate of 200 ppm, L2 larvae, 5 days after infestation, read-out: effect in at least one of the two categories (mortality or growth inhibition)
Method: 24-well microtiter plates with artificial diet were treated with aqueous test solutions prepared from 10,000 ppm DMSO stock solutions by pipetting. After drying, the plates were infested with L2 larvae (10 to 15 per well). The samples were assessed for mortality and growth inhibition in comparison to untreated samples 5 days after infestation.

[7] = system: Myzus persicae (Green Peach Aphid); assay: Activity against Myzus persicae, systemic via roots of pea seedlings; details: 144 h, test rate of 24 ppm, roots of pea seedlings in test solution, 6 days
Method: Roots of pea seedlings infested with an aphid population of mixed ages were placed directly in the aqueous test solutions prepared from 10,000 DMSO stock solutions. The samples were assessed for mortality 6 days after placing seedlings in test solutions.

[8] = system: Spodoptera littoralis (Egyptian Cotton Leaf Worm); assay: Activity against Spodoptera littoralis, systemic via lettuce grown on treated agar; details: 144 h, test rate of 12.5 ppm, root uptake by lettuce, 6 days after infestation, read-out: effect in at least one of the three categories (mortality, anti-feedancy, or growth inhibition)
From the text: Test compounds were applied by pipette from 10,000 ppm DMSO stock solutions into 24-well plates and mixed with agar. Lettuce seeds were placed on the agar and the multi well plate was closed by another plate which contains also agar. After 7 days the roots have absorbed the compound and the lettuce has grown into the lid plate. The lettuce leafs were now cut off into the lid plate. Spodoptera eggs were pipetted through a plastic stencil on a humid gel blotting paper and the plate closed with it. The samples were assessed for mortality, anti-feedant effect and growth inhibition in comparison to untreated samples 6 days after infestation.

CCSc1cc(-c2ccc(Cl)cc2)cnc1-c1nnc(-c2cc(C(F)(F)F)ccn2)n1C [Compound P1, 5-(4-chlorophenyl)-3-ethylsulfanyl-2-[4-methyl-5-[4-(trifluoromethyl)-2-pyridyl]-1,2,4-triazol-3-yl]pyridine]
≥ 80%: mortality at 200 ppm [1] | percent effect (mortality or growth inhibition) at 200 ppm [2]

CCS(=O)(=O)c1cc(-c2ccc(Cl)cc2)cnc1-c1nnc(-c2cc(C(F)(F)F)ccn2)n1C [Compound P2, 5-(4-chlorophenyl)-3-ethylsulfonyl-2-[4-methyl-5-[4-(trifluoromethyl)-2-pyridyl]-1,2,4-triazol-3-yl]pyridine]
≥ 80%: mortality at 200 ppm [1] | percent effect (mortality or growth inhibition) at 200 ppm [2]

CCSc1cc(-n2cccn2)cnc1-c1nnc(-c2cc(C(F)(F)F)ccn2)n1C [Compound P3, 3-ethylsulfanyl-2-[4-methyl-5-[4-(trifluoromethyl)-2-pyridyl]-1,2,4-triazol-3-yl]-5-pyrazol-1-yl-pyridine]
≥ 80%: mortality at 200 ppm [3] | percent effect (mortality or growth inhibition) at 200 ppm [4]

CCS(=O)(=O)c1cc(-n2cccn2)cnc1-c1nnc(-c2cc(C(F)(F)F)ccn2)n1C [Compound P4, 3-ethylsulfonyl-2-[4-methyl-5-[4-(trifluoromethyl)-2-pyridyl]-1,2,4-triazol-3-yl]-5-pyrazol-1-yl-pyridine]
≥ 80%: mortality at 200 ppm [1] | mortality at 200 ppm [5] | percent effect (mortality or growth inhibition) at 200 ppm [4]

CCSc1cc(-n2cc(C(F)(F)F)cn2)cnc1-c1nnc(-c2cc(C(F)(F)F)ccn2)n1C [Compound P5]
≥ 80%: percent effect (mortality or growth inhibition) at 200 ppm [2]

CCSc1cc(-c2ncccn2)cnc1-c1nnc(-c2cc(C(F)(F)F)ccn2)n1C [Compound P8]
≥ 80%: percent effect (mortality or growth inhibition) at 200 ppm [6] | percent effect (mortality or growth inhibition) at 200 ppm [2] | mortality at 200 ppm [3]

CCS(=O)(=O)c1cc(-c2ccc(C(F)(F)F)cc2)cnc1-c1nnc(-c2cc(C(F)(F)F)ccn2)n1C [Compound P11]
≥ 80%: mortality at 200 ppm [1] | percent effect (mortality or growth inhibition) at 200 ppm [6] | percent effect (mortality or growth inhibition) at 200 ppm [2] | mortality at 200 ppm [5] | percent effect (mortality or growth inhibition) at 200 ppm [4]

C=Cc1cnc(-c2nnc(-c3cc(C(F)(F)F)ccn3)n2C)c(S(=O)(=O)CC)c1 [Compound P12, 3-ethylsulfonyl-2-[4-methyl-5-[4-(trifluoromethyl)-2-pyridyl]-1,2,4-triazol-3-yl]-5-vinyl-pyridine]
≥ 80%: mortality at 200 ppm [5] | mortality at 24 ppm [7]

CCS(=O)(=O)c1cc(-n2ccc(C#N)n2)cnc1-c1nnc(-c2cc(C(F)(F)F)ccn2)n1C [Compound P16]
≥ 80%: mortality at 200 ppm [1] | percent control (mortality, anti-feedancy or growth inhibition) at 12.5 ppm [8] | percent effect (mortality or growth inhibition) at 200 ppm [6] | percent effect (mortality or growth inhibition) at 200 ppm [2] | mortality at 200 ppm [5]

CCS(=O)(=O)c1cc(-c2ncc(Cl)cn2)cnc1-c1nnc(-c2cc(C(F)(F)F)ccn2)n1C [Compound P18]
≥ 80%: mortality at 200 ppm [1] | percent effect (mortality or growth inhibition) at 200 ppm [2]

CCS(=O)(=O)c1cc(-c2ncc(C#N)cn2)cnc1-c1nnc(-c2cc(C(F)(F)F)ccn2)n1C [Compound P20]
≥ 80%: mortality at 200 ppm [1] | percent control (mortality, anti-feedancy or growth inhibition) at 12.5 ppm [8] | percent effect (mortality or growth inhibition) at 200 ppm [6] | percent effect (mortality or growth inhibition) at 200 ppm [2] | mortality at 200 ppm [5] | percent effect (mortality or growth inhibition) at 200 ppm [4]

CCS(=O)(=O)c1cc(-c2cccc(C#N)n2)cnc1-c1nnc(-c2cc(C(F)(F)F)ccn2)n1C [Compound P21]
≥ 80%: mortality at 200 ppm [1] | percent control (mortality, anti-feedancy or growth inhibition) at 12.5 ppm [8] | percent effect (mortality or growth inhibition) at 200 ppm [6] | percent effect (mortality or growth inhibition) at 200 ppm [2] | mortality at 200 ppm [5] | mortality at 200 ppm [3] | percent effect (mortality or growth inhibition) at 200 ppm [4]

CCS(=O)(=O)c1cc(-c2cccc(Cl)n2)cnc1-c1nnc(-c2cc(C(F)(F)F)ccn2)n1C [Compound P24, 5-(6-chloro-2-pyridyl)-3-ethylsulfonyl-2-[4-methyl-5-[4-(trifluoromethyl)-2-pyridyl]-1,2,4-triazol-3-yl]pyridine]
≥ 80%: mortality at 200 ppm [1] | percent effect (mortality or growth inhibition) at 200 ppm [6] | percent effect (mortality or growth inhibition) at 200 ppm [2] | percent effect (mortality or growth inhibition) at 200 ppm [4]

CCS(=O)(=O)c1cc(-n2ccc(Cl)n2)cnc1-c1nnc(-c2cc(C(F)(F)F)ccn2)n1C [Compound P28]
≥ 80%: mortality at 200 ppm [1] | percent control (mortality, anti-feedancy or growth inhibition) at 12.5 ppm [8] | percent effect (mortality or growth inhibition) at 200 ppm [6] | percent effect (mortality or growth inhibition) at 200 ppm [2] | mortality at 200 ppm [5] | mortality at 200 ppm [3] | percent effect (mortality or growth inhibition) at 200 ppm [4]

CCS(=O)(=O)c1cc(SC(F)(F)F)cnc1-c1nnc(-c2cc(C(F)(F)F)ccn2)n1C [Compound P34, 3-ethylsulfonyl-2-[4-methyl-5-[4-(trifluoromethyl)-2-pyridyl]-1,2,4-triazol-3-yl]-5-(trifluoromethylsulfanyl)pyridine]
≥ 80%: percent effect (mortality or growth inhibition) at 200 ppm [2] | mortality at 200 ppm [5]

CCS(=O)(=O)c1cc(S(=O)(=O)C(F)(F)F)cnc1-c1nnc(-c2cc(C(F)(F)F)ccn2)n1C [Compound P35, 3-ethylsulfonyl-2-[4-methyl-5-[4-(trifluoromethyl)-2-pyridyl]-1,2,4-triazol-3-yl]-5-(trifluoromethylsulfonyl)pyridine]
≥ 80%: mortality at 200 ppm [1] | percent effect (mortality or growth inhibition) at 200 ppm [6] | percent effect (mortality or growth inhibition) at 200 ppm [2]

CCS(=O)(=O)c1cc([S+]([O-])C(F)(F)F)cnc1-c1nnc(-c2cc(C(F)(F)F)ccn2)n1C (stereo not drawn) [Compound P36, 3-ethylsulfonyl-2-[4-methyl-5-[4-(trifluoromethyl)-2-pyridyl]-1,2,4-triazol-3-yl]-5-(trifluoromethylsulfinyl)pyridine]
≥ 80%: percent effect (mortality or growth inhibition) at 200 ppm [2] | mortality at 24 ppm [7]

CCS(=O)(=O)c1ccc(C2CC2)nc1-c1nnc(-c2cc(C(F)(F)F)ccn2)n1C [Compound P38]
≥ 80%: mortality at 200 ppm [1] | percent effect (mortality or growth inhibition) at 200 ppm [6] | percent effect (mortality or growth inhibition) at 200 ppm [2]

CCS(=O)(=O)c1ccc(-c2cccc(F)c2)nc1-c1nnc(-c2cc(C(F)(F)F)ccn2)n1C [Compound P50, 3-ethylsulfonyl-6-(3-fluorophenyl)-2-[4-methyl-5-[4-(trifluoromethyl)-2-pyridyl]-1,2,4-triazol-3-yl]pyridine]
≥ 80%: mortality at 200 ppm [1] | percent control (mortality, anti-feedancy or growth inhibition) at 12.5 ppm [8] | percent effect (mortality or growth inhibition) at 200 ppm [6] | percent effect (mortality or growth inhibition) at 200 ppm [2] | mortality at 200 ppm [5] | mortality at 200 ppm [3] | percent effect (mortality or growth inhibition) at 200 ppm [4]

CCS(=O)(=O)c1cc(-c2cccc(F)c2)cnc1-c1nnc(-c2cc(C(F)(F)F)ncn2)n1C [Compound P52]
≥ 80%: mortality at 200 ppm [1] | percent control (mortality, anti-feedancy or growth inhibition) at 12.5 ppm [8] | percent effect (mortality or growth inhibition) at 200 ppm [6] | percent effect (mortality or growth inhibition) at 200 ppm [2] | mortality at 200 ppm [5] | mortality at 200 ppm [3] | percent effect (mortality or growth inhibition) at 200 ppm [4]

CCS(=O)(=O)c1cc(-c2cccc(F)c2)cnc1-c1nnc(-c2cc(C(F)(F)F)ccn2)n1C [Compound P53]
≥ 80%: mortality at 200 ppm [1] | percent effect (mortality or growth inhibition) at 200 ppm [6] | percent effect (mortality or growth inhibition) at 200 ppm [2]
